Here are results for two substances from US20050187187A1, “Carboxyl-reduced derivatives of chondroitin sulfate, preparation thereof, use thereof as a medicinal product and the pharmaceutical compositions containing them” (Aventis Pharmas S.A., priority 2003, published 2005).

Experiment [1] has as its target T1, MMP-2 (gelatinase-A) (Homo sapiens, UniProt P08253).
T1 construct: purchased Amersham Biosciences RPN2617
T1 sequence (P08253 110-660): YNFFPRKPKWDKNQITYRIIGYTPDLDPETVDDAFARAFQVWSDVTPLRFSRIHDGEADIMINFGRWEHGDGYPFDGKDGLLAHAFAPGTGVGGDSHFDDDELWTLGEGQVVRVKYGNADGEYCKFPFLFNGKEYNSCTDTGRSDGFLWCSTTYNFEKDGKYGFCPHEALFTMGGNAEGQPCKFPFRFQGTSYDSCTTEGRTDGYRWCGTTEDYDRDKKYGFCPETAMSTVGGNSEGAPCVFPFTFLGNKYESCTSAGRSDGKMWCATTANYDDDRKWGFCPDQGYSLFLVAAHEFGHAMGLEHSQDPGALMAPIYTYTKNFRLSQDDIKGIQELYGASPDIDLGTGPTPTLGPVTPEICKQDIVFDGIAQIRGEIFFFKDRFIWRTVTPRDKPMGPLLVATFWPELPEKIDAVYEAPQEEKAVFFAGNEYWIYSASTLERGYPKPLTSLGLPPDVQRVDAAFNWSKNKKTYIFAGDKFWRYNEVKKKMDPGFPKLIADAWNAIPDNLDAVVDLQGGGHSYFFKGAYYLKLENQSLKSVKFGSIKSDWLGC
The experiment is described as follows: MMP-2 inhibitory activity, commercial ELISA kit. It is filed as biochemical. The following applies: MMP-2 800 ng/ml; dilution series in PBS buffer, pH 7.5; in words. The procedure: Effect of the Carboxyl-Reduced Persulfate Derivative (Example 1) for Human Metalloproteases MMP-2 (gelatinase-A) and MMP7
Commercial ELISA kits (such as those provided, for example, by the company Amersham Biosciences, kits RPN2617 and RPN2620) were used, respectively, to determine the inhibitory activity with respect to the MMP-2 and MMP-7 enzymes. The concentrations of the enzymes are, respectively, 800 ng/ml for MMP-2. The tests were carried out in accordance with the manufacturer's recommendations, by performing a series of dilutions of the compound to be studied in a PBS buffer, pH 7.5.
(In general: ELISA stands for enzyme-linked immunosorbent assay.)

For experiment [2], the target named is aggrecanase. Briefly: Effect on aggrecanase: conversion of recombinant substrate Agg1mut, ELISA with BC-3 antibody. It is filed as biochemical. The following applies: for % Conversion: conversion of the substrate by aggrecanase in the supernatant. As to the method:
Effect of the carboxyl-reduced derivatives on the aggrecanase in synovial fluids or on preparations of recombinant ADAMTS protein.
The analysis is carried out on 96-well plates. Before the analysis, serial dilutions of the assay compounds are prepared in an aqueous solution.
In each well, a fixed volume of synovial fluid or aggrecanase activity generating a known increase, between 1.0 and 1.4 absorbance units (405 nm), under the conditions of the analysis, is mixed with 3 μl of solution of compound from the respective dilution step. Dulbecco's modified Eagle's medium (DMEM) is added to each well to give a final volume of 300 μl. The plate is then incubated for 1 hour at 37° C. in a carbon dioxide atmosphere.
After the addition of 5 μl of a solution of 1 μg/μl of recombinant substrate Agglmut in DMEM to each well (substrate as described by Bartnik E. et al., EP 785274, 1997), the reagent mixture is incubated for 4 hours at 37° C. under a carbon dioxide atmosphere.
In a first step, the microplate is coated with 100 μl per well of a commercial goat anti-mouse IgG antibody for 1 hour at ambient temperature (5 μg/ml in a phosphate buffered saline solution, pH 7.4 [PBS buffer]). After washing with the PBS buffer containing 0.1% of Tween-20 (washing buffer), the wells are blocked by means of a step consisting of a one hour incubation with 100 μl per well of 5% bovine serum albumin in a PBS buffer containing 0.05% of Tween-20. Following another rinse with the washing buffer, each well is incubated with 100 μl of a solution, diluted to 1:1000, of BC-3 antibody in a PBS buffer containing 0.05% of Tween 20 and 0.5% of bovine serum albumin, at ambient temperature for one hour. This antibody recognizes the typical aggrecanase cleavage fragments (Hughes C. E. et al., Biochem. J. 305 (3), 799-804, 1995).
After another rinse of the analytical plate with the washing buffer, the complete set of mixtures originating from the preceding digestion is transferred to this plate, well by well, and incubated at ambient temperature for one hour. The plate is again washed as above. Next, 100 μl of the second antibody (anti-human IgG antibody labeled with peroxidase, 1:1000 in PBS containing 0.5% of BSA and 0.05% of Tween-20) are added to each well, with subsequent incubation at ambient temperature again for one hour. After a final rinse with the washing buffer, the color development is initiated by adding 100 μl of ABTS substrate solution (2 mg/ml, 2,2′-azinobis (3-ethylbenzothiazolinesulfonic acid) in 40 mM of sodium citrate plus 60 mM of disodium hydrogen phosphate, adjusted to a pH of 4.4 by adding acetic acid; 0.25 μl of 35% hydrogen peroxide added per ml immediately before measurement). The measurement is carried out by means of the screen mode using detection at 405 nm relative to a reference filter (620 nm) with automatic readings at 5-second intervals. The development is stopped as soon as the maximum signal (405 nm) in the absorbance range of 1.0 to 1.4 is reached.
% inhibition of conversion of the substrate by activity of the aggrecanase in the supernatant.

The target in experiment [3] is T2, bovine factor Xa (Bos taurus, UniProt P00743). The experiment is described as follows: Inhibition of factor Xa, chromogenic substrate S-2765 with human antithrombin III. It is filed as biochemical. The following applies: calibrated against Enoxaparin standard. The procedure: For the calibration, a standard sample of low molecular weight heparin (Enoxaparin) was used as reference.
The serial dilutions of the assay compound are prepared in a 0.046 M Tris buffer, pH 8.4, containing 0.15 M NaCl, 0.007 M EDTA, 0.1% of Tween 80 and 0.12 IU/ml of human antithrombin III. The samples of 50 μl of the respective dilutions are incubated with 50 μl of bovine factor Xa (13.6 U/ml) at 37° C. for 80 seconds. Next, 50 μl of chromogenic substrate, 1.1 mM S-2765, are added. The absorbance at 405 nm is measured in a photometer. The activity of the deblocked factor Xa is indicated by the emission of p-nitroaniline from the substrate.
Compared to the reference heparin compound (100 U/mg), the glycosamonoglycans present a factor Xa, with much lower inhibitory activity: […]

Experiment [4] concerns the target T2, bovine factor Xa. The following applies: standard sample used for calibration; cited from earlier work.

T2 sequence (P01008 33-464 partner): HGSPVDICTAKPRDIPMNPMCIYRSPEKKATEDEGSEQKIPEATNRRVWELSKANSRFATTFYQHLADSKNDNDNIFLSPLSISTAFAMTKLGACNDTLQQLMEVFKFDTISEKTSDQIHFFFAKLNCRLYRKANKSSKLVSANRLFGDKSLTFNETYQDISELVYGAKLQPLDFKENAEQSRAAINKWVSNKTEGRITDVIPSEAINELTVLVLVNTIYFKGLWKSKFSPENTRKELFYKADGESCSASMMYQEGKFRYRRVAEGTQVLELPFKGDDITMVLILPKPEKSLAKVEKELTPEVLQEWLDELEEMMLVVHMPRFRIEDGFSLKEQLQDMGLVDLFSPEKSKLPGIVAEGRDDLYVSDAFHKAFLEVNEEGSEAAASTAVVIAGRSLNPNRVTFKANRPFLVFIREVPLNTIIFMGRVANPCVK
T2 sequence (P00743 234-492 limits assumed): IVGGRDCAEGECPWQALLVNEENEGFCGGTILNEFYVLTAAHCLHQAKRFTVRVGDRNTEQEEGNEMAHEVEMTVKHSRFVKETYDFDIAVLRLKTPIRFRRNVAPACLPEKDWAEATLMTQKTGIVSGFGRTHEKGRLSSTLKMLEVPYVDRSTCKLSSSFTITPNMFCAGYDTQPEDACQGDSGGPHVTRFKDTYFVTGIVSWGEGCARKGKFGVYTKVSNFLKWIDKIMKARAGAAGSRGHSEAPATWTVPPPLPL

For the substance “Carboxyl-Reduced and Persulfated Chondroitin Sulfate Sodium Salt [Example 1]”, the “inhibition of MMP-2” value in experiment [1] is “inhibited in a concentration-dependent manner”. Also, the “estimated IC50” value in experiment [2] (aggrecanase, estimated) is roughly 4 ng/mL. The “% Conversion” value in experiment [2] (glycosaminoglycan 0.0001 μg/ml) came to 100%; in experiment [2] (glycosaminoglycan 0.0003 μg/ml), 99.0%; in experiment [2] (glycosaminoglycan 0.001 μg/ml), 95.1%; in experiment [2] (glycosaminoglycan 0.003 μg/ml), 69.2%; in experiment [2] (glycosaminoglycan 0.01 μg/ml) it was 11.6%; in experiment [2] (glycosaminoglycan 0.03 μg/ml), 14.9%. For the same substance, the “factor Xa inhibitory activity” value in experiment [3] is on record as 1.2 U/mg.

For the substance Enoxaparin [reference heparin compound], the “factor Xa inhibitory activity of the reference standard” value in experiment [4] is on record as 100 U/mg.
